{"source": "patent US20250177347A1", "about": "“SCLAREOL OR SCLAREOLIDE FOR USE IN THE TREATMENT OF INFLAMMATORY SKIN CONDITIONS” (ISP Investments LLC, priority 2022, published 2025)", "key": {"[1]": {"tested_on": "Malassezia restricta", "assay": "Broth microdilution MIC assay (EUCAST guidelines, slight modifications), resazurin fluorescence", "format": "cell-based", "conditions": "48 h-60 h at 34° C.", "description": "Objective: Sclareolide antifungal potential on Malassezia restricta was evaluated by the broth microdilution method.\nProtocol: Malassezia restricta was routinely grown on modified Leeman-Notman (mLN) agar. The broth microdilution assay was performed following EUCAST guidelines (www.eucast.org) with slight modifications. Between five and ten colonies were suspended in a modified RPMI 1640 media supplemented with resazurin at a D.O (Density Optical) of 0.1. In a 96 well plate, serial dilutions of sclareolide (0.00023% to 0.12%) from a 24% stock solution in DMSO, and ketoconazole (0.001 to 0.25 μg/ml) solutions were prepared in modified RPMI 1640 culture medium. An equal volume of Malassezia restricta inoculum was added to the test samples at different concentrations. Following 48 h-60 h of incubation at 34° C., resazurin fluorescence was analyzed at 530 nm and 590 nm.\nResults and conclusion: Results are presented as relative fluorescence intensity compared to DMSO control. MIC is defined as the lowest drug concentration that prevents growth of microorganisms."}, "[2]": {"tested_on": "scalp reconstructed human epidermis", "assay": "Malassezia restricta applied topically to scalp reconstructed human epidermis: histology and cytokine ELISA", "format": "cell-based", "conditions": "sclareolide 0.12% topical, two applications", "description": "Objective: Sclareolide anti-inflammatory effect and barrier function prevention was quantified by cytokine quantification and histological observation respectively\nProtocol: Malassezia restricta was applied topically to a scalp reconstructed human epidermis. This in vitro model is reconstructed from keratinocytes isolated from scalp skin. More precisely, the location of the epidermis used to isolate keratinocytes is interfollicular epidermis. These interfollicular keratinocytes was harvested and transferred into a cell culture insert and after several days of reconstruction, 100 μl of Malassezia restricta was applied on the top of the epidermis. Two days later, 100 μL sclareolide at a concentration of 0,12% was applied on the top of the epidermis, another application was performed after 24 hours. Ninety-six hours after the beginning of the Malassezia treatment, scalp reconstructed epidermis was stopped to performed histological analysis to observe modifications in the upper layers of the epidermis and the supernatant was harvested to measure inflammatory cytokine release by ELISA method.\nIn parallel, sclareolide decreased the inflammation induced by Malassezia restricta by the decrease of interleukin-8 release by 40,3% illustrated by FIG. 2."}, "[3]": {"tested_on": "epidermal lipids", "assay": "Epidermal lipids, Nile Red staining, in biopsies of healthy human abdominal skin in culture", "format": "cell-based", "description": "Objective: The aim of this study is to show the effect of sclareolide on the synthesis of epidermal lipids in biopsies of healthy abdominal skin.\nMethod: Epidermal lipids were assessed by fluorescent staining by using the fluorescent dye Nile Red.\n[…] Control biopsies received only 0.1% DMSO. The epidermal lipids staining was performed using paraffin sections incubated with 100 nM of Nile Red solution (Sigma) for 10 minutes. The sections were then examined under a fluorescence microscope (Nikon Eclipse Ni-E microscope). Red fluorescence was then observed (using NiS-AR Nikon acquisition software) and quantified by image analysis (Volocity® image analysis software, Improvision).\n(§1) This effect may be associated with a better quality of the skin barrier function."}, "[4]": {"tested_on": "keratin 10", "assay": "Keratin 10 immunohistochemistry in biopsies of healthy human abdominal skin in culture", "format": "cell-based", "description": "Objective: The aim of this study is to show the effect of sclareolide on the synthesis of keratin 10 in biopsies of healthy abdominal skin.\nMethod: keratin 10 was assessed by immunohistochemistry with a specific antibody. […] Control biopsies received only 0.1% DMSO. The immunostaining was performed using paraffin sections incubated in the presence of anti-keratin 10 antibody (rabbit monoclonal, Abcam). After an hour and a half of incubation followed by rinses, the sections were incubated in the presence of the secondary anti-rabbit antibody coupled with a fluorophore (Alexa Fluor® 488, Invitrogen). The sections were then examined under a fluorescence microscope (Nikon Eclipse Ni-E microscope). […] fluorescence was then observed (using NiS-AR Nikon acquisition software) and quantified by image analysis (Volocity® image analysis software, Improvision).\nas §1"}, "[5]": {"tested_on": "C. glabrata KCTC7219", "conditions": "cited from earlier work"}, "[6]": {"tested_on": "C. parapsilosis var. parapsilosis KACC45480", "conditions": "cited from earlier work"}, "[7]": {"tested_on": "C. tropicalis var. tropicalis KCTC17762", "conditions": "cited from earlier work"}, "[8]": {"tested_on": "C. albicans KCTC7965", "conditions": "cited from earlier work"}, "[9]": {"tested_on": "C. auris KCTC17809", "conditions": "cited from earlier work"}, "[10]": {"tested_on": "C. parapsilosis KACC49573", "conditions": "cited from earlier work"}, "[11]": {"conditions": "sclareolide 0.0025% in 0.1% DMSO, twice a day for 48 hours topically, vs 0.1% DMSO control"}, "[12]": {"conditions": "skin biopsies cultures, composition comprising of sclareolide"}, "[13]": {"conditions": "modified RPMI 1640, relative fluorescence vs DMSO control"}}}
{"smiles": "CC(=O)N1CCN(c2ccc(OCC3COC(Cn4ccnc4)(c4ccc(Cl)cc4Cl)O3)cc2)CC1", "note": "(stereo not drawn) [ketoconazole, reference compound]", "values": [{"measurement": "MIC", "setting": "[1]; Malassezia restricta, modified RPMI 1640", "result": 0.0625, "unit": "µg/mL"}]}
{"smiles": "CC1(C)CCC[C@]2(C)[C@H]3CC(=O)O[C@]3(C)CC[C@@H]12", "note": "[sclareolide, Sclareolide]", "values": [{"measurement": "Barrier function / penetration of Malassezia restricta in upper layers of the epidermis (histology)", "setting": "[2]; 96 h", "result": "prevented the disruption of the barrier function and the penetration of Malassezia restricta in the upper layers of the epidermis"}, {"measurement": "Decrease of interleukin-8 release", "setting": "[2]; inflammation induced by Malassezia restricta, ELISA of supernatant at 96 h", "result": "40,3%"}, {"measurement": "Levels of epidermal lipids", "setting": "[3]; [11]", "result": "increase the levels of epidermal lipids"}, {"measurement": "Total lipid content", "setting": "[3]; [12]", "result": "increased"}, {"measurement": "Levels of keratin 10", "setting": "[4]; [11]", "result": "increase the levels of keratin 10"}, {"measurement": "Keratin 10 expression", "setting": "[4]; [12]", "result": "increased"}, {"measurement": "Concentration at which growth of Malassezia restricta was completely inhibited (MIC)", "setting": "[1]; [13]", "result": 0.12, "unit": "%"}, {"measurement": "Concentration from which growth of Malassezia restricta was significantly inhibited", "setting": "[1]; [13]", "result": 0.015, "unit": "%"}]}
{"smiles": "C=C[C@](C)(O)CC[C@@H]1[C@@]2(C)CCCC(C)(C)[C@@H]2CC[C@@]1(C)O", "note": "[Sclareol]", "values": [{"measurement": "Growth, biofilm formation, and yeast-hyphal transition", "setting": "[5]", "result": "inhibiting growth, biofilm formation, and yeast-hyphal transition"}, {"measurement": "Growth, biofilm formation, and yeast-hyphal transition", "setting": "[6]", "result": "inhibiting growth, biofilm formation, and yeast-hyphal transition"}, {"measurement": "Growth, biofilm formation, and yeast-hyphal transition", "setting": "[7]", "result": "inhibiting growth, biofilm formation, and yeast-hyphal transition"}, {"measurement": "Growth, biofilm formation, and yeast-hyphal transition", "setting": "[8]", "result": "inhibiting growth, biofilm formation, and yeast-hyphal transition"}, {"measurement": "Growth, biofilm formation, and yeast-hyphal transition", "setting": "[9]", "result": "inhibiting growth, biofilm formation, and yeast-hyphal transition"}, {"measurement": "Growth, biofilm formation, and yeast-hyphal transition", "setting": "[10]", "result": "inhibiting growth, biofilm formation, and yeast-hyphal transition"}]}
